Some test systems named below: K-562 leukemia; SK-MEL-28 melanoma; OVCAR-4 ovarian; HS 578T breast; DU-145 prostate; HCC-2998 colon; A549 NSCLC; TK-10 renal; A498 renal; PC-3 prostate.
Assay in all cases: DTP human tumour cell line panel, 48 h

Where “and” joins values, the source holds several entries; their conditions need not be identical. Equal entries are not always repeated.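 Cells were grown in 96-well plates and exposed to each compound for 48 hours at five concentrations; endpoints were interpolated linearly between bracketing concentrations, or set to the highest concentration if not reached. GI50 = concentration required for 50% inhibition of growth. At the TGI there is no net growth.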 Some results are limits rather than exact numbers.

One may read the GI50 as the concentration giving 50% growth inhibition. As usually defined, the TGI is the concentration at which net growth stops. Low values mean greater sensitivity of the cells, high ones lower sensitivity of the cells. As to `CO[C@H]1/C=C/O[C@@]2(C)Oc3c(C)c(O)c4c(O)c(c(/C=N/N5C(C)CN(Cc6ccc(C#N)cc6)CC5C)c(O)c4c3C2=O)NC(=O)/C(C)=C\C=C\[C@H](C)[C@H](O)[C@@H](C)[C@@H](O)[C@@H](C)[C@H](OC(C)=O)[C@@H]1C` (some centres not stated), the GI50 with K-562 leukemia was 6.71 µM; in the experiment on SK-MEL-28 melanoma, 8.45 µM; in the experiment with OVCAR-4 ovarian, 7.49 µM; with HS 578T breast, 8.83 µM; in the experiment with DU-145 prostate it was 8.16 µM; in the experiment with HCC-2998 colon it was 7.87 µM. For the same compound, the values for the GI50 in the experiment with A549 NSCLC, in the experiment with TK-10 renal and with A498 renal were 6.81 µM, 7.92 µM and 7.06 µM, respectively. Also, the TGI in the experiment with K-562 leukemia is 25.3 µM; in the experiment on SK-MEL-28 melanoma, 16.4 µM; in the experiment on OVCAR-4 ovarian it was 26.4 µM; in the experiment on HS 578T breast, 20.3 µM; in the experiment on DU-145 prostate, 15.3 µM; in the experiment on HCC-2998 colon, 17.6 µM. In addition, the results for the TGI with A549 NSCLC, in the experiment with TK-10 renal and with A498 renal were 17.1 µM, 18.8 µM and 14 µM, respectively.
In the case of `C=CCN=C1NC(=O)C(CC(=O)Nc2cccc(Cl)c2)S1` (configuration not stated), the TGI with K-562 leukemia, in the experiment on SK-MEL-28 melanoma, in the experiment on OVCAR-4 ovarian, in the experiment on HCC-2998 colon, with A549 NSCLC and in the experiment with TK-10 renal was above 100 µM in each case. This compound also had a TGI in the experiment with A498 renal above 100 µM.
As for `OCC1CC2C=CCC(C2)C1` (configuration not stated), the TGI in the experiment with K-562 leukemia, in the experiment with SK-MEL-28 melanoma, with OVCAR-4 ovarian, in the experiment on A549 NSCLC, in the experiment with TK-10 renal and in the experiment on A498 renal was above 100 µM throughout.
With `O=C(N/C(=C\c1cccc([N+](=O)[O-])c1)c1nc2c3c(ccc2[nH]1)C(=O)c1ccccc1C3=O)c1ccccc1`, the TGI in the experiment with SK-MEL-28 melanoma was 85.8 µM; in the experiment on A549 NSCLC, above 100 µM; with TK-10 renal it was 82.2 µM; in the experiment with A498 renal it was above 100 µM.
Turning to `CCCC[C@H](CCc1ccccc1)N(C(=O)OC)N1CCC[C@H]1COC`, the TGI turned out to be 61.2 µM with K-562 leukemia; 38 µM in the experiment with SK-MEL-28 melanoma; 39.9 µM in the experiment on OVCAR-4 ovarian; 28.1 µM in the experiment with HCC-2998 colon; 67.1 µM with A549 NSCLC; 79.3 µM in the experiment on TK-10 renal. Also, the TGI with A498 renal was determined as 34.6 µM.
For the compound `CN1C(c2ccccc2)CC(=NO)CC1c1ccccc1` (configuration not stated), the GI50 in the experiment with K-562 leukemia was 32.6 µM; with HCC-2998 colon, 30.5 µM; with A549 NSCLC, 88.1 µM; in the experiment on TK-10 renal, 66.5 µM. Further, the TGI was above 100 µM in the experiment with K-562 leukemia; above 100 µM in the experiment with SK-MEL-28 melanoma; above 100 µM in the experiment with OVCAR-4 ovarian; > 100 µM and 81.6 µM in the experiment with HCC-2998 colon; above 100 µM in the experiment with A549 NSCLC; above 100 µM in the experiment on TK-10 renal. The compound further registered a TGI in the experiment on A498 renal above 100 µM.
With `CCCC(=O)Oc1ccc(/C=N/NC(N)=S)nc1`, the total growth inhibition concentration (TGI) in the experiment with K-562 leukemia, in the experiment on SK-MEL-28 melanoma, with OVCAR-4 ovarian, with HCC-2998 colon, with A549 NSCLC and with TK-10 renal was above 100 µM in each case. In the experiment on A498 renal, this compound registered a TGI above 100 µM.
For the compound `CSc1ccc(Cc2cc(C(C)(C)C)cc(C(C)(C)C)c2O)cc1`, the TGI in the experiment with K-562 leukemia was determined as 26.6 µM; with SK-MEL-28 melanoma, 30.8 µM; with OVCAR-4 ovarian it was 28.9 µM; in the experiment on HCC-2998 colon it was 32.5 µM; in the experiment with A549 NSCLC, 27.3 µM; in the experiment on TK-10 renal it was 25.7 µM. Besides, the TGI with A498 renal worked out at 29.3 µM.
For `CCCCSC1CCSc2c1ccc1ccccc21` (configuration not stated), the TGI in the experiment with K-562 leukemia, in the experiment with SK-MEL-28 melanoma, in the experiment with OVCAR-4 ovarian, with HCC-2998 colon, in the experiment with A549 NSCLC and in the experiment on TK-10 renal was above 100 µM each time.
For the compound `COc1ccc2c(c1)/C(=C\c1c(-c3ccccc3)nc3sccn13)C(=O)N2`, the GI50 with K-562 leukemia was 3.98 µM; with SK-MEL-28 melanoma it was 2.61 µM; in the experiment with PC-3 prostate, 9.55 µM; in the experiment with OVCAR-4 ovarian it was 15.6 µM; with DU-145 prostate it was 3.01 µM; in the experiment on A549 NSCLC, 7.2 µM. Moreover, the GI50 with TK-10 renal is above 23.4 µM; in the experiment on A498 renal, 0.63 µM. For the same compound, the TGI in the experiment on K-562 leukemia was above 41.9 µM; with SK-MEL-28 melanoma, 21.9 µM; in the experiment with PC-3 prostate, above 35.6 µM; in the experiment on OVCAR-4 ovarian it was above 96.8 µM; in the experiment on DU-145 prostate, 12.6 µM; in the experiment on A549 NSCLC it was above 100 µM. In addition, the total growth inhibition concentration (TGI) was above 72.9 µM in the experiment on TK-10 renal and 5.11 µM in the experiment on A498 renal.
`Nc1ccc(C(=O)CC2(O)C(=O)Nc3ccccc32)cc1` (configuration not stated): the TGI in the experiment with K-562 leukemia, in the experiment with SK-MEL-28 melanoma, with OVCAR-4 ovarian, with A549 NSCLC, in the experiment on TK-10 renal and in the experiment on A498 renal was above 100 µM each time.
Turning to `Clc1ccc(-c2nnc(-c3nn(-c4ccccc4)c4nc5ccccc5nc34)o2)cc1`, the TGI with K-562 leukemia, in the experiment on SK-MEL-28 melanoma, with OVCAR-4 ovarian, in the experiment with HCC-2998 colon, in the experiment with A549 NSCLC and with TK-10 renal was above 100 µM throughout.
`CC1CCCc2c1n[nH]c2CC1CC(=O)NC(=O)C1` (configuration not stated): the TGI in the experiment on K-562 leukemia, in the experiment on SK-MEL-28 melanoma, with OVCAR-4 ovarian, in the experiment on HCC-2998 colon, in the experiment with A549 NSCLC and in the experiment with TK-10 renal was above 100 µM throughout. This compound also returned a TGI in the experiment with A498 renal above 100 µM.
For the compound `COC(=O)CCCCCOS(=O)(=O)c1ccc(C)cc1`, the TGI in the experiment with K-562 leukemia, in the experiment on SK-MEL-28 melanoma, with HCC-2998 colon, in the experiment with A549 NSCLC, with TK-10 renal and in the experiment on A498 renal was above 100 µM throughout.
`COc1cccc(/C=C2\N=C(Cl)OC2=O)c1O`: the concentration for total growth inhibition (TGI) with K-562 leukemia, in the experiment with SK-MEL-28 melanoma, with OVCAR-4 ovarian, in the experiment with DU-145 prostate, with HCC-2998 colon and with A549 NSCLC was above 100 µM each time. For the same compound, the TGI in the experiment with TK-10 renal and with A498 renal was above 100 µM throughout.

The values are drawn from PubChem BioAssay (NCI).
